Publication PMC10650108 (Molecules, 2023)
“Also recorded” adds a separate entry of the source. Ends that are not written are not given here.

Assays:
[1] = In vitro metabolic incubation with human liver microsomes, UHPLC-HRMS metabolite profiling; type: in vitro ADME; conditions: 37 °C, 2 h
Description: (§1) Mixed-gender human liver microsomes (10-Donor Pool, total protein concentration of 20 mg/mL) and mixed-gender human skin S9 (3-Donor Pool, total protein concentration of 1.89 mg/mL) were purchased from BioreclamationIVT (Westbury, NY, USA). Phosphate buffered saline (PBS, pH 7.2~7.4) was obtained from Sangon Biotech Co., Ltd. (Shanghai, China). BPC-157 (HPLC purity > 99%) and (Deamino-cysl, val4, D-arg8)-Vasopressin (DCVDV, internal standard, ISTD) were purchased from Alta Scientific Co., Ltd. (Tianjin, China). ^13C6,^15N2-BPC-157 (labeled BPC-157, HPLC purity > 98%) was purchased from Synpeptide Co., Ltd. (Nanjing, China). BPC-157 (2–15) free acid, BPC-157 (1–13) free acid, BPC-157 (2–13) free acid, BPC-157 (1–12) free acid, BPC-157 (3–15) free acid, BPC-157 (1–8) free acid, and BPC-157 (2–8) free acid were synthesized by Alta Scientific Co., Ltd. (Tianjin, China). MgCl2 was from Beyotime Biotechnology (Shanghai, China). Nicotinamide adenine dinucleotide phosphate (NADPH) was purchased from Vetec (Shanghai, China). Acetonitrile (ACN), methanol (MeOH), and formic acid (FA) were of LC-MS grade and were obtained from Thermo Fisher Scientific (San Jose, CA, USA). Milli-Q purified water (MerckMillipore, Vimodrone, Milan, Italy) was used for sample preparation, reference material dilution, and LC mobile phase preparation. […]

[2] = In vitro metabolic incubation with human skin S9, UHPLC-HRMS metabolite profiling; type: in vitro ADME; conditions: human skin S9 0.189 mg/mL, 37 °C, 2 h
Description: as §1

[3] = mixed-gender human skin S9 (3-Donor Pool) in PBS; conditions: 37 °C, up to 2 h
[4] = in vitro plasma metabolism; conditions: cited from earlier work
[5] = mixed-gender human liver microsomes (10-Donor Pool) in PBS with MgCl2 and NADPH; conditions: 37 °C, up to 2 h

Sequence: EPPPGKPADDAG [BPC-157 (2–13) free acid (M3), BPC-157 (2–13) free acid]
- Detection of metabolite in the human liver microsome incubation system (in words) ([1]; human liver microsomes 1 mg/mL, NADPH, UHPLC-HRMS): only detected in the human liver microsome incubation system

Sequence: EPPPGKPADDAGL [BPC-157 (2–14) free acid (M5), BPC-157 (2–14) free acid]
- Detection of metabolite in the human skin S9 incubation system (in words) [2]: only detected in the human skin S9 incubation system

Sequence: EPPPGKPADDAGLV [BPC-157 (2–15) free acid (M8), BPC-157 (2–15) free acid]
- Relative response of metabolites (relative abundance) ([1]; both incubation systems (human liver microsomes and human skin S9), relative to the most abundant metabolite M8): most abundant metabolite in both incubation systems

Sequence: GEPPPGKPADDAGLV [BPC-157]
- cleaved bond [3]: glycine1-E2, major
- fragment found [3]: BPC-157 (1–14) free acid (M6), GEPPPGKPADDAGL; also recorded: BPC-157 (2–8) free acid (M1), EPPPGKP, major; also recorded: BPC-157 (1–8) free acid (M2), GEPPPGKP, major; also recorded: BPC-157 (1–13) free acid (M4), GEPPPGKPADDAG, major
- fragment found [4]: BPC-157 (2–15) free acid (M8), major; also recorded: BPC-157 (2–13) free acid
- cleaved bond [5]: glycine1-E2, major
- fragment found [5]: BPC-157 (1–14) free acid (M6), GEPPPGKPADDAGL; also recorded: BPC-157 (2–8) free acid (M1), EPPPGKP, major; also recorded: BPC-157 (1–8) free acid (M2), GEPPPGKP, major; also recorded: BPC-157 (1–13) free acid (M4), GEPPPGKPADDAG, major

Sequence: GEPPPGKPADDAGLV [labeled BPC-157]
- fragment found [5]: labeled M9

Sequence: GKPADDAGLV [BPC-157 (6–15) free acid (M7), BPC-157 (6–15) free acid]
- Detection of metabolite in the human skin S9 incubation system (in words) [2]: only detected in the human skin S9 incubation system
